Here are results for 7 compounds from PubChem BioAssay (NCI).

Molecules are shown by their SMILES.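 Tested at 5 concentrations; 48 h exposure; 96-well plates; endpoints linearly interpolated, else capped at highest concentration. GI50 = concentration required for 50% inhibition of growth. TGI marks complete inhibition of growth.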 Bounds are passed on as bounds.

Some test systems named below: HOP-92 NSCLC; SK-OV-3 ovarian; SF-539 CNS; UACC-257 melanoma; IGROV1 ovarian; A549 NSCLC; HCT-15 colon; KM12 colon; SNB-75 CNS; CAKI-1 renal.
Common to all, as to experiment: NCI tumour cell line growth inhibition, 48 h

As for `CCN(CC)CCNc1ccc([N+](=O)[O-])c2sc3cc(Cl)ccc3c(=O)c12`, the GI50 in the assay with HOP-92 NSCLC was 2.15 µM; with SK-OV-3 ovarian, 3.33 µM; in the assay with SF-539 CNS it was 2.05 µM; in the assay on UACC-257 melanoma, 2.08 µM; with IGROV1 ovarian, 2.05 µM; in the assay with A549 NSCLC, 2.89 µM. The figures for the GI50 in the assay with HCT-15 colon and in the assay with KM12 colon were 2.7 µM and 6.77 µM, respectively. Also, the TGI was 30.3 µM in the assay on HOP-92 NSCLC; 96.5 µM with SK-OV-3 ovarian; 5.25 µM with SF-539 CNS; 4.96 µM in the assay with UACC-257 melanoma; 5.23 µM in the assay with IGROV1 ovarian; over 100 µM with A549 NSCLC. In addition, the TGI is over 100 µM in the assay with HCT-15 colon and 53.6 µM in the assay on KM12 colon.
As to `COc1cc2c(cc1OCCCOc1ccc(-c3cc4ccccc4c4ccccc34)cc1)N=C[C@@H]1CCCN1C2=O`, the GI50 is 0.261 µM with SNB-75 CNS; 0.535 µM in the assay on CAKI-1 renal; 0.334 µM in the assay on HOP-92 NSCLC; 1.6 µM with SK-OV-3 ovarian; 1.58 µM in the assay on SF-539 CNS; 1.57 µM with UACC-257 melanoma. In addition, the GI50 was 0.122 µM in the assay on IGROV1 ovarian, 0.724 µM in the assay with A549 NSCLC, 0.896 µM in the assay with HCT-15 colon and 0.787 µM with KM12 colon. The TGI with SNB-75 CNS came to 1.41 µM; in the assay on CAKI-1 renal, 1.65 µM; with HOP-92 NSCLC, 1.53 µM; in the assay on SK-OV-3 ovarian, 3.26 µM; in the assay on SF-539 CNS, 2.92 µM; in the assay with UACC-257 melanoma, 3.1 µM. Further, the TGI amounted to 0.288 µM in the assay with IGROV1 ovarian, 2.01 µM in the assay with A549 NSCLC, 2.26 µM in the assay on HCT-15 colon and 2.06 µM in the assay with KM12 colon.
Take `Cc1cc(Nc2ccc(Cl)cc2)nc(NCCCNc2ccnc3cc(Cl)ccc23)n1`: the GI50 was 1.33 µM with SNB-75 CNS; 1.53 µM with CAKI-1 renal; 1.01 µM with HOP-92 NSCLC; 1.65 µM in the assay with SK-OV-3 ovarian; 1.65 µM with SF-539 CNS; 1.8 µM in the assay on UACC-257 melanoma. Also, the TGI in the assay on SNB-75 CNS turned out to be 2.6 µM; in the assay with CAKI-1 renal, 2.9 µM; in the assay with HOP-92 NSCLC it was 2.53 µM; in the assay with SK-OV-3 ovarian it was 3.01 µM; in the assay on SF-539 CNS it was 3.13 µM; in the assay on UACC-257 melanoma, 3.39 µM.
Turning to `COC(=O)C(NC(=O)c1ccccc1)C(c1c(O)cc(O)cc1O)P(=O)(OC)OC` (stereo unspecified), the TGI in the assay on SNB-75 CNS, with CAKI-1 renal, in the assay on HOP-92 NSCLC, with SK-OV-3 ovarian, in the assay with SF-539 CNS and with UACC-257 melanoma was over 100 µM in each case. In addition, the TGI in the assay on IGROV1 ovarian, in the assay on A549 NSCLC, with HCT-15 colon and in the assay with KM12 colon was over 100 µM in each case.
As for `CCOC(=O)c1csc(NC(=O)C(C)N2CCOCC2)n1` (stereo unspecified), the TGI in the assay on SNB-75 CNS, in the assay with CAKI-1 renal, in the assay on HOP-92 NSCLC, with SK-OV-3 ovarian, in the assay with SF-539 CNS and in the assay on UACC-257 melanoma was over 100 µM each time. Moreover, the TGI in the assay on IGROV1 ovarian, in the assay with A549 NSCLC, with HCT-15 colon and in the assay on KM12 colon was over 100 µM in each case.
On to `NC(Cc1ccccc1CP(=O)(O)O)C(=O)O` (stereo unspecified), for which the TGI in the assay on SNB-75 CNS, in the assay on CAKI-1 renal, with HOP-92 NSCLC, with SK-OV-3 ovarian, in the assay with SF-539 CNS and in the assay with UACC-257 melanoma was over 100 µM each time. Also, the TGI with IGROV1 ovarian, with A549 NSCLC, in the assay with HCT-15 colon and in the assay on KM12 colon was over 100 µM throughout.
With `c1cncc([O][Ge]([O]c2cccnc2)([O]c2cccnc2)[O]c2cccnc2)c1`, the GI50 in the assay on SNB-75 CNS, in the assay on CAKI-1 renal, in the assay on SK-OV-3 ovarian, in the assay on SF-539 CNS, in the assay with UACC-257 melanoma and in the assay on IGROV1 ovarian was over 100 µM in each case. For the same compound, the GI50 with A549 NSCLC, in the assay on HCT-15 colon and in the assay on KM12 colon was over 100 µM throughout. Besides, the TGI in the assay with SNB-75 CNS, with CAKI-1 renal, in the assay on SK-OV-3 ovarian, with SF-539 CNS, in the assay on UACC-257 melanoma and in the assay on IGROV1 ovarian was over 100 µM each time. Further, the TGI in the assay with A549 NSCLC, with HCT-15 colon and in the assay on KM12 colon was over 100 µM each time.
